# Results reported in patent US10450356B2, “PRAME derived peptides and immunogenic compositions comprising these” (Academisch Ziekenhuis Leiden H.O.D.N. LUMC, priority 2007, dated 2019).
# Marks after values point to notes of the source that are not given here.
# Target: T1, 20S proteasomes purified from a B-LCL cell line (immunoproteasomes) (Homo sapiens, UniProt P28062+P28065+P40306)
# T1 construct: 20S proteasomes were purified from a B-LCL cell line; endogenous in cells; purified after Groettrup et al. 1995
# Assay: In vitro proteasome mediated cleavage analysis
# Format: biochemical
# Set-up: key to Intact in fragment / Intact Fragment: intact epitope found in digestion fragments: (+), present; (-), not present; key to Processing C-term: generation by proteasome-mediated digestion of fragments containing the correct C-terminus: (++) fragments present for >5%; (+) present for <5%; (-) no fragments containing the C-term. were found
# Conditions: for Processing C-term: generation by proteasome-mediated digestion of fragments containing the correct C-terminus: 1 h digestion; for C-term. generation: generation of C-terminus of the epitope after 1 h digestion; for Intact Fragment: intact epitope found in digestion fragments: after 1 h digestion; for Intact in fragment: intact epitope found in digestion fragments after 1 h digestion
# Description: 20S proteasomes were purified from a B-LCL cell line as described by Groettrup et al. (J. Biol. Chem. 270:23808-23815; 1995). This cell type is known to contain immunoproteasomes. High LMP2 and 7 content was confirmed by 2-D immuno-blotting. To assess kinetics, digestions were performed with different incubation periods. Peptides (27 mers, 20 μg) were incubated with 1 μg of purified proteasome at 37° C. for 1 h, 4 h and 24 h in 300 μl proteasome digestion buffer as described (Eggers, et al. 1995. J. Exp. Med. 182:1865). Trifluoroacetic acid was added to stop the digestion and samples were stored at −20° C. before mass spectrometric analysis.
# Electrospray ionization mass spectrometry was performed on a hybrid quadrupole time-of-flight mass spectrometer, a Q-TOF (Micromass), equipped with an on-line nanoelectrospray interface with an approximate flow rate of 250 nL/min. Injections were done with a dedicated micro/nano HPLC autosampler, the FAMOS (LC Packings). Digestion solutions were diluted five times in water-methanol-acetic acid (95:5:1, v/v/v), and trapped on the precolumn (MCA-300-05-C8; LC Packings) in water-methanol-acetic acid (95:5:1, v/v/v). Washing of the precolumn was done for 3 min to remove the buffers present in the digests. Subsequently, the trapped analytes were eluted with a steep gradient going from 70% B to 90% B in 10 min, with a flow of 250 nl/min (A: water-methanol-acetic acid (95:5:1, v/v/v); B: water-methanol-acetic acid (10:90:1, v/v/v)). This low elution rate allows for a few additional MS/MS experiments if necessary during the same elution. Mass spectra were recorded from mass 50-2000 Da every second. The resolution allows direct determination of the monoisotopic mass, also from multiple charged ions. The peaks in the mass spectrum were searched in the digested precursor peptide using the Biolynx/proteins software (Micromass). The intensity of the peaks in the mass spectra was used to establish the relative amounts of peptides generated by proteasome digestion.
Processing C-term: generation by proteasome-mediated digestion of fragments containing the correct C-terminus,C-term. generation,Intact Fragment: intact epitope found in digestion fragments,Intact in fragment,Compound
++ ((++) fragments present for >5%),++ (abundant (++) present for >5%),,,CSCC[C@H](NC(=O)[C@H](Cc1ccccc1)NC(=O)[C@H](CC(C)C)NC(=O)[C@@H]1CCCN1C(=O)[C@@H]1CCCN1C(=O)[C@H](Cc1ccccc1)NC(=O)[C@@H](N)CC(C)C)C(=O)N[C@@H](C)C(=O)N[C@@H](C)C(=O)N[C@@H](Cc1ccccc1)C(=O)O
-,,-,,CC[C@H](C)[C@H](N)C(=O)N1CCC[C@H]1C(=O)N[C@H](C(=O)N[C@@H](CCC(=O)O)C(=O)N[C@H](C(=O)N[C@@H](CC(C)C)C(=O)N[C@H](C(=O)N[C@@H](CC(=O)O)C(=O)N[C@@H](CC(C)C)C(=O)N[C@@H](Cc1ccccc1)C(=O)O)C(C)C)C(C)C)C(C)C
-,,-,,CC[C@H](C)[C@H](NC(=O)[C@@H]1CCCN1C(=O)[C@H](CCC(=O)O)NC(=O)[C@@H]1CCCN1C(=O)[C@H](CC(=O)O)NC(=O)[C@H](Cc1ccc(O)cc1)NC(=O)[C@H](Cc1ccccc1)NC(=O)[C@@H](N)[C@@H](C)O)C(=O)N[C@@H](CC(C)C)C(=O)O
-,,-,,CC(C)C[C@H](NC(=O)[C@@H](NC(=O)[C@H](Cc1c[nH]cn1)NC(=O)[C@@H](NC(=O)[C@H](CC(C)C)NC(=O)[C@@H](N)CC(N)=O)[C@@H](C)O)C(C)C)C(=O)N[C@@H](Cc1ccc(O)cc1)C(=O)N1CCC[C@H]1C(=O)N[C@H](C(=O)O)C(C)C
++ ((++) fragments present for >5%),++ (abundant (++) present for >5%),+,+,CC(C)C[C@H](NC(=O)[C@H](Cc1ccccc1)NC(=O)[C@H](Cc1ccccc1)NC(=O)[C@H](CC(C)C)NC(=O)[C@H](CO)NC(=O)[C@H](CC(=O)O)NC(=O)[C@@H](NC(=O)[C@H](Cc1ccc(O)cc1)NC(=O)[C@@H](N)CC(C)C)C(C)C)C(=O)O
-,,-,,CC(C)C[C@H](NC(=O)[C@@H](NC(=O)[C@@H]1CCCN1C(=O)[C@H](CC(C)C)NC(=O)[C@H](CCCCN)NC(=O)[C@H](Cc1c[nH]c2ccccc12)NC(=O)[C@@H](NC(=O)[C@@H](N)CS)[C@@H](C)O)[C@@H](C)O)C(=O)N[C@@H](C)C(=O)N[C@@H](CCCCN)C(=O)O

# Further lines, the compound ahead of its results:
Compound,Processing C-term: generation by proteasome-mediated digestion of fragments containing the correct C-terminus,C-term. generation,Intact Fragment: intact epitope found in digestion fragments,Intact in fragment
CC(C)C[C@H](NC(=O)[C@H](C)NC(=O)[C@H](CCC(N)=O)NC(=O)[C@H](CC(C)C)NC(=O)[C@H](CS)NC(=O)[C@H](CCC(N)=O)NC(=O)[C@H](CC(C)C)NC(=O)[C@@H](N)CO)C(=O)N[C@@H](Cc1ccc(O)cc1)C(=O)N[C@H](C(=O)O)C(C)C,+ ((+) present for <5%),,-,
CC(C)C[C@H](NC(=O)[C@H](CCC(=O)O)NC(=O)[C@H](CCCNC(=N)N)NC(=O)[C@H](CC(C)C)NC(=O)[C@H](CCCNC(=N)N)NC(=O)[C@H](C)NC(=O)[C@H](Cc1c[nH]cn1)NC(=O)[C@H](CC(C)C)NC(=O)[C@H](Cc1ccc(O)cc1)NC(=O)[C@H](C)N)C(=O)O,+ ((+) present for <5%),+ (low abundant (+) present for <5%),+,+
CC[C@H](C)[C@H](NC(=O)[C@H](CO)NC(=O)CNC(=O)[C@H](Cc1c[nH]c2ccccc12)NC(=O)[C@H](CC(C)C)NC(=O)[C@@H](N)CCCNC(=N)N)C(=O)N[C@@H](CCC(N)=O)C(=O)N[C@@H](CO)C(=O)N[C@@H](CCCNC(=N)N)C(=O)N[C@@H](Cc1ccc(O)cc1)C(=O)O,-,,-,
CC(C)C[C@H](NC(=O)[C@H](CCCCN)NC(=O)[C@H](CCCCN)NC(=O)[C@H](CS)NC(=O)[C@H](CS)NC(=O)[C@H](CC(C)C)NC(=O)[C@H](CCCNC(=N)N)NC(=O)[C@H](CC(C)C)NC(=O)[C@@H](N)C(C)C)C(=O)N[C@@H](CCCCN)C(=O)O,-,,-,
CC(C)C[C@H](NC(=O)[C@H](CC(C)C)NC(=O)[C@H](CCC(=O)O)NC(=O)[C@H](CCCNC(=N)N)NC(=O)[C@H](CC(C)C)NC(=O)[C@H](CCCNC(=N)N)NC(=O)[C@H](C)NC(=O)[C@H](Cc1c[nH]cn1)NC(=O)[C@H](CC(C)C)NC(=O)[C@@H](N)Cc1ccc(O)cc1)C(=O)O,+ ((+) present for <5%),+ (low abundant (+) present for <5%),+,+
CC[C@H](C)[C@H](NC(=O)[C@H](CCSC)NC(=O)[C@H](CCC(N)=O)NC(=O)CNC(=O)[C@H](CC(C)C)NC(=O)[C@H](Cc1ccc(O)cc1)NC(=O)[C@@H]1CCCN1)C(=O)N[C@@H](CC(N)=O)C(=O)N[C@@H](CC(C)C)C(=O)O,+^(k) ((+) present for <5%),,+,+
CC(C)C[C@H](NC(=O)[C@H](CCCNC(=N)N)NC(=O)[C@H](C)NC(=O)[C@H](Cc1c[nH]cn1)NC(=O)[C@H](CC(C)C)NC(=O)[C@H](Cc1ccc(O)cc1)NC(=O)[C@H](C)NC(=O)[C@H](CC(C)C)NC(=O)[C@@H](N)CCCNC(=N)N)C(=O)O,++ ((++) fragments present for >5%),++ (abundant (++) present for >5%),+,+
CC[C@H](C)[C@H](N)C(=O)N[C@H](C(=O)N[C@@H](CC(=O)O)C(=O)N[C@@H](CC(=O)O)C(=O)N[C@@H](CCC(N)=O)C(=O)N[C@@H](CC(C)C)C(=O)N[C@@H](CC(C)C)C(=O)N[C@@H](C)C(=O)N[C@@H](CC(C)C)C(=O)N[C@@H](CC(C)C)C(=O)O)[C@@H](C)O,,+ (low abundant (+) present for <5%),,+
CC[C@H](C)[C@H](NC(=O)[C@H](C)NC(=O)[C@H](CC(C)C)NC(=O)[C@H](C)N)C(=O)N[C@@H](C)C(=O)N[C@@H](C)C(=O)N[C@@H](CC(C)C)C(=O)N[C@@H](CCC(=O)O)C(=O)N[C@@H](CC(C)C)C(=O)N[C@@H](CC(C)C)C(=O)O,-,,-,
CC(C)C[C@H](NC(=O)[C@H](CO)NC(=O)[C@H](C)NC(=O)[C@H](CCCNC(=N)N)NC(=O)[C@H](CC(N)=O)NC(=O)CNC(=O)[C@H](CO)NC(=O)[C@@H](N)Cc1c[nH]c2ccccc12)C(=O)N[C@@H](Cc1ccc(O)cc1)C(=O)O,-,,-,
CC[C@H](C)[C@H](NC(=O)[C@@H](N)CO)C(=O)N[C@@H](CO)C(=O)N[C@@H](C)C(=O)N[C@@H](CC(C)C)C(=O)N[C@@H](CCC(N)=O)C(=O)N[C@@H](CO)C(=O)N[C@@H](CC(C)C)C(=O)N[C@@H](CC(C)C)C(=O)O,-,,-,
